Here are results for two compounds from ChEMBL document CHEMBL5678810.

The target of test [1] is Cyclin-dependent kinase 3 (Homo sapiens) (UniProt Q00526). Nature of the test: Inhibition of T7 bacteriophage fused human CDK3 at 10 uM by KINOMEscan analysis relative to control.
The target in test [2] is Dual specificity mitogen-activated protein kinase kinase 7 (Homo sapiens) (UniProt O14733). Nature of the test: Inhibition of T7 bacteriophage fused human MKK7 at 10 uM by KINOMEscan analysis relative to control.
In test [3] the target is BMP-2-inducible protein kinase (Homo sapiens) (UniProt Q9NSY1). Nature of the test: Inhibition of T7 bacteriophage fused human BIKE at 10 uM by KINOMEscan analysis relative to control.
The target of test [4] is Protein kinase C iota type (Homo sapiens) (UniProt P41743). Nature of the test: Inhibition of T7 bacteriophage fused human PRKCI at 10 uM by KINOMEscan analysis relative to control.
For test [5], the target named is Tyrosine-protein kinase Mer (Homo sapiens) (UniProt Q12866). Nature of the test: Inhibition of T7 bacteriophage fused human MERTK at 10 uM by KINOMEscan analysis relative to control.
Test [6] deals with Serine/threonine-protein kinase BRSK2 (Homo sapiens) (UniProt Q8IWQ3). In words: Inhibition of T7 bacteriophage fused human BRSK2 at 10 uM by KINOMEscan analysis relative to control.
Test [7] has as its target Mitogen-activated protein kinase kinase kinase 11 (Homo sapiens) (UniProt Q16584). In words: Inhibition of T7 bacteriophage fused human MLK3 at 10 uM by KINOMEscan analysis relative to control.
For test [8], the target named is cAMP-dependent protein kinase catalytic subunit alpha (Homo sapiens) (UniProt P17612). In words: Inhibition of T7 bacteriophage fused human PKAC-alpha at 10 uM by KINOMEscan analysis relative to control.
The target in test [9] is Cyclin-dependent kinase 18 (Homo sapiens) (UniProt Q07002). In words: Inhibition of T7 bacteriophage fused human PCTK3 at 10 uM by KINOMEscan analysis relative to control.
Test [10] has as its target Serine/threonine-protein kinase Nek11 (Homo sapiens) (UniProt Q8NG66). In words: Inhibition of T7 bacteriophage fused human NEK11 at 10 uM by KINOMEscan analysis relative to control.
Test [11] deals with Serine/threonine-protein kinase PAK 6 (Homo sapiens) (UniProt Q9NQU5). In words: Inhibition of T7 bacteriophage fused human PAK6 at 10 uM by KINOMEscan analysis relative to control.
Test [12] addresses cGMP-dependent protein kinase 2 (Homo sapiens) (UniProt Q13237). In words: Inhibition of T7 bacteriophage fused human PRKG2 at 10 uM by KINOMEscan analysis relative to control.
Test [13] concerns the target ALK tyrosine kinase receptor (Homo sapiens) (UniProt Q9UM73). Nature of the test: Inhibition of T7 bacteriophage fused human ALK at 10 uM by KINOMEscan analysis relative to control.
In test [14] the target is Receptor tyrosine-protein kinase erbB-2 (Homo sapiens) (UniProt P04626). Nature of the test: Inhibition of T7 bacteriophage fused human ERBB2 at 10 uM by KINOMEscan analysis relative to control.
Test [15] has as its target Dual specificity protein kinase CLK4 (Homo sapiens) (UniProt Q9HAZ1). In words: Inhibition of T7 bacteriophage fused human CLK4 at 10 uM by KINOMEscan analysis relative to control.
In test [16] the target is MAP kinase-interacting serine/threonine-protein kinase 1 (Homo sapiens) (UniProt Q9BUB5). In words: Inhibition of T7 bacteriophage fused human MKNK1 at 10 uM by KINOMEscan analysis relative to control; values are per cent of control.
Test [17] deals with Protein kinase C eta type (Homo sapiens) (UniProt P24723). In words: Inhibition of T7 bacteriophage fused human PRKCH at 10 uM by KINOMEscan analysis relative to control.
For test [18], the target named is Proto-oncogene tyrosine-protein kinase ROS (Homo sapiens) (UniProt P08922). In words: Inhibition of T7 bacteriophage fused human ROS1 at 10 uM by KINOMEscan analysis relative to control.
Test [19] concerns the target Dual specificity tyrosine-phosphorylation-regulated kinase 2 (Homo sapiens) (UniProt Q92630). In words: Inhibition of T7 bacteriophage fused human DYRK2 at 10 uM by KINOMEscan analysis relative to control; values are per cent of control.
For test [20], the system named is Receptor-type tyrosine-protein kinase FLT3 (Homo sapiens), P36888 [K663Q]. In words: Inhibition of T7 bacteriophage fused human FLT3 K663Q mutant at 10 uM by KINOMEscan analysis relative to control.
The subject of test [21] is Tyrosine-protein kinase ABL1 (Homo sapiens), P00519 [Y253F]. Nature of the test: Inhibition of T7 bacteriophage fused human phosphorylated ABL1 Y253F mutant at 10 uM by KINOMEscan analysis relative to control.
In test [22] the target is Serine/threonine-protein kinase ULK2 (Homo sapiens) (UniProt Q8IYT8). Nature of the test: Inhibition of T7 bacteriophage fused human ULK2 at 10 uM by KINOMEscan analysis relative to control.
Test [23] deals with Serine/threonine-protein kinase Chk1 (Homo sapiens) (UniProt O14757). In words: Inhibition of T7 bacteriophage fused human CHEK1 at 10 uM by KINOMEscan analysis relative to control.
In test [24] the test system is Tyrosine-protein kinase ABL1 (Homo sapiens), P00519 [H396P]. Nature of the test: Inhibition of T7 bacteriophage fused human nonphosphorylated ABL1 H396P mutant at 10 uM by KINOMEscan analysis relative to control.
In test [25] the target is Cyclin-dependent kinase 7 (Homo sapiens) (UniProt P50613). In words: Inhibition of T7 bacteriophage fused human CDK7 at 10 uM by KINOMEscan analysis relative to control.
For test [26], the target named is Eukaryotic translation initiation factor 2-alpha kinase 1 (Homo sapiens) (UniProt Q9BQI3). Nature of the test: Inhibition of T7 bacteriophage fused human EIF2AK1 at 10 uM by KINOMEscan analysis relative to control.
The target of test [27] is Serine/threonine-protein kinase 24 (Homo sapiens) (UniProt Q9Y6E0). In words: Inhibition of T7 bacteriophage fused human MST3 at 10 uM by KINOMEscan analysis relative to control; values are per cent of control.
Test [28] has as its target Glycogen synthase kinase-3 beta (Homo sapiens) (UniProt P49841). In words: Inhibition of T7 bacteriophage fused human GSK3B at 10 uM by KINOMEscan analysis relative to control; values are per cent of control.
Test [29] concerns the target Serine/threonine-protein kinase Nek4 (Homo sapiens) (UniProt P51957). Nature of the test: Inhibition of T7 bacteriophage fused human NEK4 at 10 uM by KINOMEscan analysis relative to control; values are per cent of control.
The target in test [30] is Activin receptor type-2A (Homo sapiens) (UniProt P27037). In words: Inhibition of T7 bacteriophage fused human ACVR2A at 10 uM by KINOMEscan analysis relative to control.
Test [31] deals with Serine/threonine-protein kinase Chk2 (Homo sapiens) (UniProt O96017). In words: Inhibition of CHK2 Lys2 labeling site in human PC-3 cell lysate at 10 uM by KiNativ profiling analysis relative to control. Format: subcellular.

Protein kinase C iota type (Homo sapiens), sequence (P41743 whole entry, the tested form may be a part): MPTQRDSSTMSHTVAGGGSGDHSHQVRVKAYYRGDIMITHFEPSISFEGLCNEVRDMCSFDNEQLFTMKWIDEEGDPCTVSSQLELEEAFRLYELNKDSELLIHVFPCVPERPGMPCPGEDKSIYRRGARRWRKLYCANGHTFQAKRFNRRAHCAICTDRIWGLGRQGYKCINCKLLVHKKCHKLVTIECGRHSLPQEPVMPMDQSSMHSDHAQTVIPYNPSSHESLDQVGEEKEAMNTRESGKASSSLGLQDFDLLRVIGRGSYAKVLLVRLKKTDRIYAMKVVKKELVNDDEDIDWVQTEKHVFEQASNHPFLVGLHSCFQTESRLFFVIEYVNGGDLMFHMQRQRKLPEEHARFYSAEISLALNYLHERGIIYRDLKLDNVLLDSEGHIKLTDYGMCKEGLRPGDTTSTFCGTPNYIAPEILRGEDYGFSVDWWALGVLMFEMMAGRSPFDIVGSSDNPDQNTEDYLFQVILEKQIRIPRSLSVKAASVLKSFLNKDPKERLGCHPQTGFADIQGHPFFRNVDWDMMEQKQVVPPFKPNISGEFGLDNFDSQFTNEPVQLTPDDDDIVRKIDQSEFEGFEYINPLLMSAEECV
Cyclin-dependent kinase 3 (Homo sapiens), sequence (Q00526 whole entry, looked up, the tested form may be a part): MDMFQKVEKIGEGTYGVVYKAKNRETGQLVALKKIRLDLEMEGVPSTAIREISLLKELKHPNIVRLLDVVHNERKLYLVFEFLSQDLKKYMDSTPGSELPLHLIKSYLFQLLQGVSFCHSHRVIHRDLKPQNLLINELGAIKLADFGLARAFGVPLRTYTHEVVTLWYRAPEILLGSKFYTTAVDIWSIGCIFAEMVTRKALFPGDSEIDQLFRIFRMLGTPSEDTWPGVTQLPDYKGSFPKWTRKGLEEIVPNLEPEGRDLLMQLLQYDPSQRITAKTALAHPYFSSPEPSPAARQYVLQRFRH
Serine/threonine-protein kinase Chk1 (Homo sapiens), sequence (O14757 whole entry, the tested form may be a part): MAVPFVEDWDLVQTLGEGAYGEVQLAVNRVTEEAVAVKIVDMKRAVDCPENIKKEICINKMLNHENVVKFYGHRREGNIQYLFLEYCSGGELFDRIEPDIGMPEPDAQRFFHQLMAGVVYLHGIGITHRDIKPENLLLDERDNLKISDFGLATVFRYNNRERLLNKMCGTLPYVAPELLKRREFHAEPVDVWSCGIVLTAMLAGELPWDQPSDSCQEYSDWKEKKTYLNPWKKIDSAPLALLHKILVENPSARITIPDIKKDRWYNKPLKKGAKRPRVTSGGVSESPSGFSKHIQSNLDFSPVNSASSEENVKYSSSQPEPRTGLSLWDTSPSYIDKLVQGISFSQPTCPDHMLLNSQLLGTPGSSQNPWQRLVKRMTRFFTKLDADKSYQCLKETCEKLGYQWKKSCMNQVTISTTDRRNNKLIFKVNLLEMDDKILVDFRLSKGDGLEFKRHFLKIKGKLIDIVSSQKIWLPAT
MAP kinase-interacting serine/threonine-protein kinase 1 (Homo sapiens), sequence (Q9BUB5 whole entry, looked up, the tested form may be a part): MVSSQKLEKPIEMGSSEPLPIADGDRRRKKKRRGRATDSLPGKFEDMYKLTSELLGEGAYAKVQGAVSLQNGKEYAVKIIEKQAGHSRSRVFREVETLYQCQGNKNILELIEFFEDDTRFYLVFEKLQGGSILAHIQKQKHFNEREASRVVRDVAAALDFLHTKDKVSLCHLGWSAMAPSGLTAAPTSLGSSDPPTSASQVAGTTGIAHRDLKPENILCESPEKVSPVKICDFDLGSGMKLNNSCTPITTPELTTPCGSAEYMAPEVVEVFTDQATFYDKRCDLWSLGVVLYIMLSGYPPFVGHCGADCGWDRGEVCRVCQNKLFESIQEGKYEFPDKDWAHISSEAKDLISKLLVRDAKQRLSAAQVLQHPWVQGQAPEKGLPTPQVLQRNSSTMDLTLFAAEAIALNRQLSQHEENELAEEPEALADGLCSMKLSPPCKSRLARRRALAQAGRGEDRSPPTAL
Serine/threonine-protein kinase BRSK2 (Homo sapiens), sequence (Q8IWQ3 whole entry, the tested form may be a part): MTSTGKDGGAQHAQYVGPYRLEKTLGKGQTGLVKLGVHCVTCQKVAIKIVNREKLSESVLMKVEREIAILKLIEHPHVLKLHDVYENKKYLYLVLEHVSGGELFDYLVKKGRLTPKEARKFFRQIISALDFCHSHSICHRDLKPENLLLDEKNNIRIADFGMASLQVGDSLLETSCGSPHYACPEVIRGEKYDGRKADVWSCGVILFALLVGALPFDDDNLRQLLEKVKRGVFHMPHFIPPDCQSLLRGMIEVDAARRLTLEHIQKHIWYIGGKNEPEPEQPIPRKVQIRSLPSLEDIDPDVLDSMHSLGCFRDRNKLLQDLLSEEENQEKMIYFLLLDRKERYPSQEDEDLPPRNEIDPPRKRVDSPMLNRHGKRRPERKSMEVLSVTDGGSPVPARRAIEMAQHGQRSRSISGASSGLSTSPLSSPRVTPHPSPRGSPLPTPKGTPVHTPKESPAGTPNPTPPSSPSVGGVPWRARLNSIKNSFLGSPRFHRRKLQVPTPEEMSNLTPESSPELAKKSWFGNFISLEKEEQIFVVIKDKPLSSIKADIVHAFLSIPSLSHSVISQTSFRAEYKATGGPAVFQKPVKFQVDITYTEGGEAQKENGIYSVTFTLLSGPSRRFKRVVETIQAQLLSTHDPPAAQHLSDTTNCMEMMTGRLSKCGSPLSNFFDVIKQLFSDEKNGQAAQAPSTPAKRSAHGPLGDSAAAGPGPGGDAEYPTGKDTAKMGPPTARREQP
Proto-oncogene tyrosine-protein kinase ROS (Homo sapiens), sequence (P08922 whole entry, the tested form may be a part): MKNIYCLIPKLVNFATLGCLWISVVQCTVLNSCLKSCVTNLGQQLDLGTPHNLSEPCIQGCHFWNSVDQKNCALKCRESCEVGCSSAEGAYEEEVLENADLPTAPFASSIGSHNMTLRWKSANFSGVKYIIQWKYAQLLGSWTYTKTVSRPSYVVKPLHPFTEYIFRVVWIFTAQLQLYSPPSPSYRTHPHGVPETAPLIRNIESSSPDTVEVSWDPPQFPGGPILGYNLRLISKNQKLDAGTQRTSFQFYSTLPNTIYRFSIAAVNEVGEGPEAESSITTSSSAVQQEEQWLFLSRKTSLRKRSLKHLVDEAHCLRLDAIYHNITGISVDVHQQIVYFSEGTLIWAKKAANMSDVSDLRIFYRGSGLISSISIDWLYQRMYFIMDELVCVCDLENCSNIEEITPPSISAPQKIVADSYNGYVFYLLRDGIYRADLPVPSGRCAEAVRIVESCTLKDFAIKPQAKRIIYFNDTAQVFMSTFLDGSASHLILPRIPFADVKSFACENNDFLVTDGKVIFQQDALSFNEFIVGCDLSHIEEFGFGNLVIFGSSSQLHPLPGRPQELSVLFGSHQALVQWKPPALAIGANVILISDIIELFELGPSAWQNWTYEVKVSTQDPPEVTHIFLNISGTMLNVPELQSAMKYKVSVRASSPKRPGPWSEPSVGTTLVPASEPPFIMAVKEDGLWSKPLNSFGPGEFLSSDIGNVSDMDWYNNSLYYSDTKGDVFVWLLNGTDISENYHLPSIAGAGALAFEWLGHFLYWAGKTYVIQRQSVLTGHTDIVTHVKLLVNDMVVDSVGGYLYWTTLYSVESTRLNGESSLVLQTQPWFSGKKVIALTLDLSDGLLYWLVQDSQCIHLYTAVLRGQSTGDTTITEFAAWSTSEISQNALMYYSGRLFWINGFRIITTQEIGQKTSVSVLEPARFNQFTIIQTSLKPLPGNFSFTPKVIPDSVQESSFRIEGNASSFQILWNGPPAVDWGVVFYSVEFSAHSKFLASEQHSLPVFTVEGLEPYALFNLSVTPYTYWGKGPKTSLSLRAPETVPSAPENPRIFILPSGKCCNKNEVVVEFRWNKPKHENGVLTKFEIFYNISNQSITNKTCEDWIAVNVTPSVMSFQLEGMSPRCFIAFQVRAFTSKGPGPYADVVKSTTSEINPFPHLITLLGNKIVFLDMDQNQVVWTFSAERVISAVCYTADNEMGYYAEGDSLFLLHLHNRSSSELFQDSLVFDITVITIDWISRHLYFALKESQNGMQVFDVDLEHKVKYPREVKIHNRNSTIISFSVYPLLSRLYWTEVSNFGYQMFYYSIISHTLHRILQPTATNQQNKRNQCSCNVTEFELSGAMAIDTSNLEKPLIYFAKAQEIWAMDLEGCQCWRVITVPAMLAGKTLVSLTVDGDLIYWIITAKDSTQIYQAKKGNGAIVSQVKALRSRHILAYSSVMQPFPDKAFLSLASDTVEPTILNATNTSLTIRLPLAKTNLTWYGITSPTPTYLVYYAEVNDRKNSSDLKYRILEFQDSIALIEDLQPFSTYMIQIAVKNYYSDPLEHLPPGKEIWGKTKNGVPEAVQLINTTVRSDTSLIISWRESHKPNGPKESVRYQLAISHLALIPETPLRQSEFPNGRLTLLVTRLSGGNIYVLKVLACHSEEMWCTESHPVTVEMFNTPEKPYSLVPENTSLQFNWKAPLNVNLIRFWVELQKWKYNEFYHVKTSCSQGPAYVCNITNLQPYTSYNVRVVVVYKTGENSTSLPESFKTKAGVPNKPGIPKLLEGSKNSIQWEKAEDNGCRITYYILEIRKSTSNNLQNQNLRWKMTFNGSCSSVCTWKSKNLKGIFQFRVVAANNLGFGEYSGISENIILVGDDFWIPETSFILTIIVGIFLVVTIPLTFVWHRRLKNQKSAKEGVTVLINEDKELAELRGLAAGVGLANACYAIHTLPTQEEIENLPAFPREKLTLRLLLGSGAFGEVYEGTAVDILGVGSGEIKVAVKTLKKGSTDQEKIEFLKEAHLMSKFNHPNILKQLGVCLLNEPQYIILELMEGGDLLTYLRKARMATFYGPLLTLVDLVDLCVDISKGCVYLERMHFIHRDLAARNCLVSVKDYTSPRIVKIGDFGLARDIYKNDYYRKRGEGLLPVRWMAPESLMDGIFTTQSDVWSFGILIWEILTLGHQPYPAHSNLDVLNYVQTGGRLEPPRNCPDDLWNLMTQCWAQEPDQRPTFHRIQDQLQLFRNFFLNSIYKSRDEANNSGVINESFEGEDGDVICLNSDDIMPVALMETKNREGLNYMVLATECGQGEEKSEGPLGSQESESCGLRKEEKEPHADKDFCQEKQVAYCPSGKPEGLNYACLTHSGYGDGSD

In the case of `COc1cc(N2CCC(N3CCN(C)CC3)CC2)ccc1Nc1ncc2c(n1)N(C)c1ccccc1C(=O)N2C`, the inhibition in test [1] was 100%; in [2], 100%; in test [3] it was 100%; in test [4] it was 100%; in test [5] it was 100%; in test [6], 64%. Besides, the inhibition in test [7] was found to be 100%; in test [8] it was 100%; in test [9] it was 100%; in test [10], 100%; in test [11], 98%; in test [12] it was 74%. In addition, the inhibition in test [13] is 13%; in test [14], 100%; in test [15], 54%; in test [17] it was 100%; in test [18] it was 12%; in test [20], 97%. The inhibition in test [21] worked out at 89%; in [22], 67%; in test [23], 100%; in [24], 100%; in test [25] it was 86%; in [26] it was 100%. For the same compound, the inhibition in [30] came to 100%. Also, the residual activity in test [16] was found to be 50%; in [19] it was 76%; in test [27], 87%; in test [28] it was 88%; in test [29], 95%.

In the case of `COc1cc(C(=O)N2CCC(N3CCN(C)CC3)CC2)ccc1Nc1ncc2c(n1)N(C1CCCC1)c1ccccc1C(=O)N2C`, in test [31], the inhibition amounted to 0%.
